{"source": "ChEMBL document CHEMBL3639140", "about": "“Naphthyridine derivatives as inhibitors of hypoxia inducible factor (HIF) hydroxylase” (2014)", "target": "Egl nine homolog 1 (Homo sapiens, UniProt Q9GZT9)", "sequence (Q9GZT9 whole entry)": "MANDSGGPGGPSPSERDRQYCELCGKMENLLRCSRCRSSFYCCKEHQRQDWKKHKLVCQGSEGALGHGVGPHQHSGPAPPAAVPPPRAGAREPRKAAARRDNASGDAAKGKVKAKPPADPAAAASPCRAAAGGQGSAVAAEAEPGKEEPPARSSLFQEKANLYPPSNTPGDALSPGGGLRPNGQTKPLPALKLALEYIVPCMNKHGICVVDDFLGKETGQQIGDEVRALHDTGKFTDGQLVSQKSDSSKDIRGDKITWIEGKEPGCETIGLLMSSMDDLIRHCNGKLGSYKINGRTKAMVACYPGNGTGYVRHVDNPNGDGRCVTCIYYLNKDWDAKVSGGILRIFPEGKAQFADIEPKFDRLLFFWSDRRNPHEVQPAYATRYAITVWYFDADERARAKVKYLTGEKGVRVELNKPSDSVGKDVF", "assay": "For example, a HIF peptide for use in the HIF-PH assay is [methoxycoumarin]-[…]-amide. HIF-PH, e.g., HIF-PH2 (EGLN1), can be expressed in, e.g., insect Hi5 cells, and partially purified, e.g., through a SP ion exchange chromatography column.", "assay_type": "cell-based, BTI-TN-5B1-4", "note": "pIC50: −log10 of the molar value."}
{"smiles": "O=C(NCc1ccncc1)c1ncc2c(=O)n(Cc3ccccc3)ccc2c1O", "values": [{"measurement": "pIC50", "result": 6.72}]}
